# Laboratory results reported in US20080009418A1, “Selective Inhibitors” (Alchemia LTD., priority 2004, published 2008).
# Assays:
# [1] = molecular target: T1, Human δ-opioid (DOP) (Homo sapiens, UniProt P41143); experiment: Radioligand binding, human δ-opioid (DOP) membranes, FlashPlate, [3H]-Bremazocine; details: compound at 10 μM, [3H]-Bremazocine
# T1 construct: purchased Perkin Elmer Biosignal
# How it was run: (§1)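 Cloned human receptor membranes were coated onto FlashPlate wells and incubated with radioligand and compound (added from a 0.5 mM DMSO daughter plate) for 1 hour at room temperature in the dark. Scintillation counting gave percent inhibition, with DMSO defining total and reference ligand defining non-specific binding.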
# [2] = molecular target: T2, Human κ-Opioid (KOP) (Homo sapiens, UniProt P41145); experiment: Radioligand binding, human κ-opioid (KOP) membranes, filtration, [3H]-Diprenorphine; details: compound at 10 μM, [3H]-Diprenorphine
# T2 construct: purchased Perkin Elmer Biosignal
# How it was run: (§2)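 Membranes from cloned human receptors were incubated with compound and radioligand for 1 hour at room temperature. Bound ligand was collected on 0.3% PEI-soaked filters, washed with cold 50 mM Tris-HCl pH 7.4, and counted by scintillation. Percent inhibition was computed against DMSO totals and reference-ligand nonspecific wells.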
# [3] = molecular target: T3, Human Melanocortin (MC3) (Homo sapiens, UniProt P41968); experiment: Radioligand binding, human melanocortin MC3 membranes, FlashPlate, [125I]-NDP-αMSH; details: compound at 10 μM, [125I]-NDP-αMSH
# T3 construct: purchased Perkin Elmer Biosignal
# How it was run: as §1
# [4] = molecular target: T4, Human Melanocortin (MC4) (Homo sapiens, UniProt P32245); experiment: Radioligand binding, human melanocortin MC4 membranes, FlashPlate, [125I]-NDP-αMSH; details: compound at 10 μM, [125I]-NDP-αMSH
# T4 construct: purchased Perkin Elmer Biosignal
# How it was run: as §1
# [5] = molecular target: T5, Human melanocortin (MC5) (Homo sapiens, UniProt P33032); experiment: Radioligand binding, human melanocortin MC5 membranes, FlashPlate, [125I]-NDP-αMSH; details: compound at 10 μM, [125I]-NDP-αMSH
# T5 construct: purchased Perkin Elmer Biosignal
# How it was run: as §1
# [6] = molecular target: T6, Human melanin-concentrating hormone (MCH1) (Homo sapiens, UniProt Q99705); experiment: Radioligand binding, human melanin-concentrating hormone MCH1 membranes, FlashPlate, [125I]-S36057; details: compound at 10 μM; for A6: inhibition of radioligand binding, human melanin-concentrating hormone (MCH1): [125I]-S36057
# T6 construct: purchased Perkin Elmer Biosignal
# How it was run: as §1
# [7] = molecular target: T7, Human μ-opioid (MOP) (Homo sapiens, UniProt P35372); experiment: Radioligand binding, human μ-opioid (MOP) membranes, FlashPlate, [3H]-Naloxone; details: compound at 10 μM, [3H]-Naloxone
# T7 construct: purchased Perkin Elmer Biosignal
# How it was run: as §1
# [8] = molecular target: T8, Human neurokinin (NK1) (Homo sapiens, UniProt P25103); experiment: Radioligand binding, human neurokinin NK1 membranes, filtration, [125I]-Substance P; details: compound at 10 μM, [125I]-Substance P
# T8 construct: purchased Perkin Elmer Biosignal
# How it was run: as §2
# [9] = molecular target: T9, Human neuropeptide Y (NPY-Y1) (Homo sapiens, UniProt P25929); experiment: Radioligand binding, human neuropeptide Y NPY-Y1 membranes, FlashPlate, [125I]-PYY; details: compound at 10 μM, [125I]-PYY
# T9 construct: purchased Perkin Elmer Biosignal
# T9 sequence (P25929 1-384): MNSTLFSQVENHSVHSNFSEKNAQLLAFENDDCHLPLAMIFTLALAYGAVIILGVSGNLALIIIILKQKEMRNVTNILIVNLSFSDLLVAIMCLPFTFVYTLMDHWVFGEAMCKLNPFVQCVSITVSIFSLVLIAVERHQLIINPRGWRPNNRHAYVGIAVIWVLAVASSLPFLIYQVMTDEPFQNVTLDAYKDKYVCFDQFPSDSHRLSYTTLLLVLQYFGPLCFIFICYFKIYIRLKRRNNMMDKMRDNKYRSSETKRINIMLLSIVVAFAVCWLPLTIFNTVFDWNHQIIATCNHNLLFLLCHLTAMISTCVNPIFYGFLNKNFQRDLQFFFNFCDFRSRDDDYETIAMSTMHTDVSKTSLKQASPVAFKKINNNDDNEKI
# How it was run: as §1
# [10] = molecular target: T10, Human opioid (ORL1) (Homo sapiens, UniProt P41146); experiment: Radioligand binding, human opioid ORL1 membranes, FlashPlate, [125I]-Nociceptin; details: compound at 10 μM, [125I]-Nociceptin
# T10 construct: purchased Perkin Elmer Biosignal
# How it was run: as §1
# [11] = molecular target: T11, Mouse urotensin (mUR2) (Mus musculus, UniProt Q8VIH9); experiment: Radioligand binding, mouse urotensin mUR2 membranes, FlashPlate, [125I]-Urotensin II; details: compound at 10 μM, [125I]-Urotensin II
# T11 construct: purchased Perkin Elmer Biosignal
# T11 sequence (Q8VIH9 1-385): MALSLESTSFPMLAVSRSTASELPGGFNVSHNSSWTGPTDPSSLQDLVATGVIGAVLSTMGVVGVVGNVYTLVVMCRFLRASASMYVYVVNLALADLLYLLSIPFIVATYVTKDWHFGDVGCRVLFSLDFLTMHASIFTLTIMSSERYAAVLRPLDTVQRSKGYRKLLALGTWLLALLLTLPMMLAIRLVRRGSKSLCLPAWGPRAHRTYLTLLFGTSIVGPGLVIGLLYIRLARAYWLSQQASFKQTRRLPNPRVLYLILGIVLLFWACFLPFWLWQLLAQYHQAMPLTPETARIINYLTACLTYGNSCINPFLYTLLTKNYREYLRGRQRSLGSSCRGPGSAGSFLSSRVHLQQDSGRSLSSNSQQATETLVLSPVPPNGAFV
# How it was run: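 Cloned mouse urotensin (mUR2) receptor membranes from Perkin Elmer Biosignal were immobilized in FlashPlate microplates using a proprietary coating. Each well got 19.5 μl buffer, then 0.5 μl of DMSO, reference ligand, or compound. Adding 5 μl of [125I]-Urotensin II, diluted to 5× final concentration in binding buffer, started binding. Plates were sealed with TopSeal-A and incubated 1 hour at room temperature in the dark. Wells were counted for 30 seconds each on a TopCount after a 60-second delay, and percentage inhibition was calculated.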
# T6 sequence (Q99705 whole entry): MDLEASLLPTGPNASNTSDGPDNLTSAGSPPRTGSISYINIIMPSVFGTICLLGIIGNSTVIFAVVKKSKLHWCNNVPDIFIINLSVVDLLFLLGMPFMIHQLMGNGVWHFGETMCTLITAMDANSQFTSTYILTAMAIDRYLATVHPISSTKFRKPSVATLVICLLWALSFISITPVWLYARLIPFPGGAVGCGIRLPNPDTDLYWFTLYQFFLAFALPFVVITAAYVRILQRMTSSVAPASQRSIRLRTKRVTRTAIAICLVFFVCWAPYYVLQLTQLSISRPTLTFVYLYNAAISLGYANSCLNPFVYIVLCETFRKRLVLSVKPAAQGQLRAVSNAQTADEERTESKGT
# T10 sequence (P41146 whole entry): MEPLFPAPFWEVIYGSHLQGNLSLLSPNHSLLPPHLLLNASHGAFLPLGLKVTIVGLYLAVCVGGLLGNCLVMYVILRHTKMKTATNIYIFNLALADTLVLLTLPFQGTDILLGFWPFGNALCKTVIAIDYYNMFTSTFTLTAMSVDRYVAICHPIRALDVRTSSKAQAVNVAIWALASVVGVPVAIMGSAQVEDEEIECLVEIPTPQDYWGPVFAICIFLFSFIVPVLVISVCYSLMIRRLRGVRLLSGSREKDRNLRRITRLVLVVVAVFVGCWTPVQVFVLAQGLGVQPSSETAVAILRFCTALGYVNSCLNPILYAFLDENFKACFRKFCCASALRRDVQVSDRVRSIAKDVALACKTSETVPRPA
# T1 sequence (P41143 whole entry): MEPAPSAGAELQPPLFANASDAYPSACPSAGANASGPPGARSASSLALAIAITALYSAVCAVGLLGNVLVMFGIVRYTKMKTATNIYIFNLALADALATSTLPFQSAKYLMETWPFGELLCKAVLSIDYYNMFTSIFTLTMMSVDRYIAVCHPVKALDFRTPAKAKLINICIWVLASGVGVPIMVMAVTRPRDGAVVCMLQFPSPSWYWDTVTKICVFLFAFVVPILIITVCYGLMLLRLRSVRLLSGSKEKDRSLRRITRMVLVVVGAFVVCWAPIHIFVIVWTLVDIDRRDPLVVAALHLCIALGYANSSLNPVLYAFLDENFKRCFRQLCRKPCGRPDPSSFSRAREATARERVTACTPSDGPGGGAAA
# T7 sequence (P35372 whole entry): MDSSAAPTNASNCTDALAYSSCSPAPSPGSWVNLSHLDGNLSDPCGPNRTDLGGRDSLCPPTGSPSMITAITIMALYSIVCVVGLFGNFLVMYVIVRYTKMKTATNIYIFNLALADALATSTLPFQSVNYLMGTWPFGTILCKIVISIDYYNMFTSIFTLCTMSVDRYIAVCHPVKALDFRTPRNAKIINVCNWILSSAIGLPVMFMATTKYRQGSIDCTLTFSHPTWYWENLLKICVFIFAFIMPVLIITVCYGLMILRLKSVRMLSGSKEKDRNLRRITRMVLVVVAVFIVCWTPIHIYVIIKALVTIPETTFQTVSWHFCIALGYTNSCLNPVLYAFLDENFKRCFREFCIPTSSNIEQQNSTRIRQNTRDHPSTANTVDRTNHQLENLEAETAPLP
# T2 sequence (P41145 whole entry): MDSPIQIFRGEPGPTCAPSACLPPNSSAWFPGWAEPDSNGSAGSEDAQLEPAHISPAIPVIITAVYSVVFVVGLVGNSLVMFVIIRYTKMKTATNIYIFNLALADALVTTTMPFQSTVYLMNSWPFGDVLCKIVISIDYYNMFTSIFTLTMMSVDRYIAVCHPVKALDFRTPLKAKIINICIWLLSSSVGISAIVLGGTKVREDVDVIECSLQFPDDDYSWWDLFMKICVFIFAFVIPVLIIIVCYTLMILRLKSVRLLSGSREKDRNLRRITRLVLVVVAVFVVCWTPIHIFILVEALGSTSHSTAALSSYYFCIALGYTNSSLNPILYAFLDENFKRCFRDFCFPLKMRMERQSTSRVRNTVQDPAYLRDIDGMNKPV
# T5 sequence (P33032 whole entry): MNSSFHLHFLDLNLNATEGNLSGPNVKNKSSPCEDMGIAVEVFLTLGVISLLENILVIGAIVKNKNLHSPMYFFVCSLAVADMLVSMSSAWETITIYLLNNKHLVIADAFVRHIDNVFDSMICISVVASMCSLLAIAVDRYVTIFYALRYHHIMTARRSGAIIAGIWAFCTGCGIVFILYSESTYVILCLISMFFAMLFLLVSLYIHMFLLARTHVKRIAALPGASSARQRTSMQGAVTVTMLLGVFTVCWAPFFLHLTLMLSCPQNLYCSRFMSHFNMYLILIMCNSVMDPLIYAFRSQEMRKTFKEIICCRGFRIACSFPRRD
# T8 sequence (P25103 whole entry): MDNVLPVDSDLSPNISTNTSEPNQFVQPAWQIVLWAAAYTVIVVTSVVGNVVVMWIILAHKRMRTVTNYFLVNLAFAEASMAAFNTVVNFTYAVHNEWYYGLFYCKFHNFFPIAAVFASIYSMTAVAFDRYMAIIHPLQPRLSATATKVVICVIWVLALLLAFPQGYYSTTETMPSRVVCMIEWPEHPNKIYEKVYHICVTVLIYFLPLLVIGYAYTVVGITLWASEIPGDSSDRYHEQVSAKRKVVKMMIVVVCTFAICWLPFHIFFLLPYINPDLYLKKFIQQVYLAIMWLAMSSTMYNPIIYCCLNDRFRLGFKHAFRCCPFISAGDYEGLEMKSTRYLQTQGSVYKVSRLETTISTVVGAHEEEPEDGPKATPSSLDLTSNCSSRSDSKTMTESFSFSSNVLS
# T4 sequence (P32245 whole entry): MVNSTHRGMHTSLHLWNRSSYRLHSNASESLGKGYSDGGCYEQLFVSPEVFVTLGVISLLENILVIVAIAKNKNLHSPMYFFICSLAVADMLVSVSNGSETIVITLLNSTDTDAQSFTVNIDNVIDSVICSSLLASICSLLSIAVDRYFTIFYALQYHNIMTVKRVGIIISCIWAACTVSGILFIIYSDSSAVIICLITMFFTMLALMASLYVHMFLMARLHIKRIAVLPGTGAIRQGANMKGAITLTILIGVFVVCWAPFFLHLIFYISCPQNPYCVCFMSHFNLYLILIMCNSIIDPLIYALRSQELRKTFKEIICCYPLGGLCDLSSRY
# T3 sequence (P41968 whole entry): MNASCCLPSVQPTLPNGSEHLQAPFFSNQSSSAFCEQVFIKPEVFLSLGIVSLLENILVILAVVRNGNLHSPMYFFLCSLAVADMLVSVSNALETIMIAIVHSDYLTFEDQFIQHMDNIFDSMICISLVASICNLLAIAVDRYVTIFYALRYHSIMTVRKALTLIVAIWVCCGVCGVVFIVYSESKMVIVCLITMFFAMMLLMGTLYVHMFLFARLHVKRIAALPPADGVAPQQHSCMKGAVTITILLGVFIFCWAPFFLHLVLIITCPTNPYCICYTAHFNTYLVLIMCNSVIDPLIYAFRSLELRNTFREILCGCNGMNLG
Structure (SMILES),"A1: inhibition of radioligand binding, human δ-opioid (DOP) [1]","A2: inhibition of radioligand binding, human κ-opioid (KOP) [2]","A3: inhibition of radioligand binding, human melanocortin (MC3) [3]","A4: inhibition of radioligand binding, human melanocortin (MC4) [4]","A5: inhibition of radioligand binding, human melanocortin (MC5) [5]","A6: inhibition of radioligand binding, human melanin-concentrating hormone (MCH1) [6]","A7: inhibition of radioligand binding, human μ-opioid (MOP) [7]","A8: inhibition of radioligand binding, human neurokinin (NK1) [8]","A9: inhibition of radioligand binding, human neuropeptide Y (NPY-Y1) [9]","A10: inhibition of radioligand binding, human opioid (ORL1) [10]","A11: inhibition of radioligand binding, mouse urotensin (mUR2) [11]",other results
N=C(N)NCCC(=O)N[C@H]1C(OCc2ccc(Cl)cc2)O[C@H](COCc2ccc3ccccc3c2)[C@@H](O)[C@@H]1OCc1ccc(-c2ccccc2)cc1 (stereo partly shown) [compound 534],− (“−” indicates less than 50% inhibition at 10 μM),− (“−” indicates less than 50% inhibition at 10 μM),+ (“+” indicates greater than 50% inhibition at 10 μM),+ (“+” indicates greater than 50% inhibition at 10 μM),+ (“+” indicates greater than 50% inhibition at 10 μM),+ (“+” indicates greater than 50% inhibition at 10 μM),− (“−” indicates less than 50% inhibition at 10 μM),+ (“+” indicates greater than 50% inhibition at 10 μM),− (“−” indicates less than 50% inhibition at 10 μM),− (“−” indicates less than 50% inhibition at 10 μM),− (“−” indicates less than 50% inhibition at 10 μM),–
"NCCCC(=O)NC1C(OCc2ccc(Cl)cc2)OC(COCc2ccc(Cl)cc2)C(O)C1OCc1ccc2ccccc2c1 (single isomer, unassigned) [compound 499]",− (“−” indicates less than 50% inhibition at 10 μM),− (“−” indicates less than 50% inhibition at 10 μM),+ (“+” indicates greater than 50% inhibition at 10 μM),+ (“+” indicates greater than 50% inhibition at 10 μM),+ (“+” indicates greater than 50% inhibition at 10 μM),–,–,+ (“+” indicates greater than 50% inhibition at 10 μM),− (“−” indicates less than 50% inhibition at 10 μM),+ (“+” indicates greater than 50% inhibition at 10 μM),− (“−” indicates less than 50% inhibition at 10 μM),"A6: inhibition of radioligand binding, human melanin-concentrating hormone (MCH1) ([6]; 10 µM): − (“−” indicates less than 50% inhibition at 10 μM); A7: inhibition of radioligand binding, human μ-opioid (MOP) ([7]; 10 µM): − (“−” indicates less than 50% inhibition at 10 μM)"
"NCCCC(=O)NC1C(OCc2ccc(Cl)cc2)OC(COCc2ccccc2)C(O)C1OCc1ccccc1 (single isomer, unassigned) [compound 504]",− (“−” indicates less than 50% inhibition at 10 μM),− (“−” indicates less than 50% inhibition at 10 μM),− (“−” indicates less than 50% inhibition at 10 μM),− (“−” indicates less than 50% inhibition at 10 μM),–,− (“−” indicates less than 50% inhibition at 10 μM),− (“−” indicates less than 50% inhibition at 10 μM),+ (“+” indicates greater than 50% inhibition at 10 μM),− (“−” indicates less than 50% inhibition at 10 μM),–,− (“−” indicates less than 50% inhibition at 10 μM),"A5: inhibition of radioligand binding, human melanocortin (MC5) ([5]; 10 µM): − (“−” indicates less than 50% inhibition at 10 μM); A10: inhibition of radioligand binding, human opioid (ORL1) ([10]; 10 µM): + (“+” indicates greater than 50% inhibition at 10 μM)"
N=C(N)NCCC(=O)NC1C(OCc2ccc(Cl)cc2)OC(COCc2ccc(Cl)cc2)C(O)C1OCc1ccc2ccccc2c1 (stereo not shown) [compound 431],–,–,–,–,–,–,–,–,–,–,–,"A1: inhibition of radioligand binding ([1]; human DOP membranes): − (“−” indicates less than 50% inhibition at 10 μM); A2: inhibition of radioligand binding ([2]; human KOP membranes): − (“−” indicates less than 50% inhibition at 10 μM); A3: inhibition of radioligand binding ([3]; human MC3 membranes): + (“+” indicates greater than 50% inhibition at 10 μM); A4: inhibition of radioligand binding ([4]; human MC4 membranes): + (“+” indicates greater than 50% inhibition at 10 μM); A5: inhibition of radioligand binding ([5]; human MC5 membranes): + (“+” indicates greater than 50% inhibition at 10 μM); A6: inhibition of radioligand binding ([6]; [125I]-S36057, human MCH1 membranes): + (“+” indicates greater than 50% inhibition at 10 μM); A7: inhibition of radioligand binding ([7]; human MOP membranes): − (“−” indicates less than 50% inhibition at 10 μM); A8: inhibition of radioligand binding ([8]; human NK1 membranes): + (“+” indicates greater than 50% inhibition at 10 μM); A9: inhibition of radioligand binding ([9]; human NPY-Y1 membranes): − (“−” indicates less than 50% inhibition at 10 μM); A10: inhibition of radioligand binding ([10]; human ORL1 membranes): + (“+” indicates greater than 50% inhibition at 10 μM); A11: inhibition of radioligand binding ([11]; mouse mUR2 membranes): − (“−” indicates less than 50% inhibition at 10 μM)"
COCC1OC(OCc2ccc3ccccc3c2)C(NC(=O)CCCN)C(OCc2ccc(-c3ccccc3)cc2)C1O (stereo not shown) [compound 245],–,–,–,–,–,–,–,–,–,–,–,"A1: inhibition of radioligand binding ([1]; FlashPlate): − (“−” indicates less than 50% inhibition at 10 μM); A2: inhibition of radioligand binding ([2]; filtration): − (“−” indicates less than 50% inhibition at 10 μM); A3: inhibition of radioligand binding ([3]; FlashPlate): − (“−” indicates less than 50% inhibition at 10 μM); A4: inhibition of radioligand binding ([4]; FlashPlate): − (“−” indicates less than 50% inhibition at 10 μM); A5: inhibition of radioligand binding ([5]; FlashPlate): − (“−” indicates less than 50% inhibition at 10 μM); A6: inhibition of radioligand binding ([6]; [125I]-S36057, FlashPlate): − (“−” indicates less than 50% inhibition at 10 μM); A7: inhibition of radioligand binding ([7]; FlashPlate): − (“−” indicates less than 50% inhibition at 10 μM); A8: inhibition of radioligand binding ([8]; filtration): + (“+” indicates greater than 50% inhibition at 10 μM); A9: inhibition of radioligand binding ([9]; FlashPlate): − (“−” indicates less than 50% inhibition at 10 μM); A10: inhibition of radioligand binding ([10]; FlashPlate): − (“−” indicates less than 50% inhibition at 10 μM); A11: inhibition of radioligand binding ([11]; FlashPlate): − (“−” indicates less than 50% inhibition at 10 μM)"
